# Data reported in US12304905B2, “Pharmaceutical salts of benzothiazol compounds, polymorphs and methods for preparation thereof” (priority 2019, dated 2025).
# Where two headings read alike, the source gives them in different places.
# What was measured:
# Type in all cases: physicochemical
# [1] = Dynamic Vapor Sorption (DVS) of free base
# Procedure: Samples (˜10 mg) were transferred into a DVS instrument and recorded the weight change with respect to the atmospheric humidity at 25° C. using the following parameters: • Equilibrium: dm/dt: 0.01%/min. (for min: 10 min and max: 180 min). • Drying: 0% RH for 120 min • RH (%) measurement step: 10% • RH (%) measurement step scope: 0-90-0% (6) Proton Nuclear Magnetic Resonance (1H NMR) • 400 MHz Bruker with DMSO-d6 or MeOH-d4 solvents • Temperature: 27° C.
# (1S,2S)-2-fluoro-N-(6-(4-methylpyridin-3-yl)benzo[d]thiazol-2-yl)cyclopropane-1-carboxamide free base appears as light yellow powder. Subsequently, the physical and thermal properties of free base were characterized. […] This free base form was named as Pattern A.
# [2] = Solubility test of free base in solvents
# Procedure: About 4 mg of (1S,2S)-2-fluoro-N-(6-(4-methylpyridin-3-yl)benzo[d]thiazol-2-yl)cyclopropane-1-carboxamide was weighed into a 2.0 mL glass vial and then selected solvents was added in the vial stepwise until all the solid was dissolved. The experiment was conducted by manual dilution combined with visual observation at 25° C. and 50° C. The total volume of solvent added was recorded.
# [3] = Solubility test of free base in bio-relevant media and buffers; settings: for solubility at 24 h: thermodynamic from solid
# Procedure: About 5 mg starting free base were weighed in 2 mL vials. Then 1.0 mL biorelevant media (SGF, FaSSIF and FeSSIF) and buffers were added into the vials. All the vials were placed on the thermo-mixer and kept at 37° C. (700 r/m in). After shaking at 37° C. for 24 hrs, mother liquids obtained by filtration were analyzed by HPLC directly or after being diluted by ACN/water for 20-40 times.
structure (smiles),measurement,setting,value
"Cc1ccncc1-c1ccc2nc(NC(=O)[C@@H]3C[C@@H]3F)sc2c1 [free base, (1S,2S)-2-fluoro-N-(6-(4-methylpyridin-3-yl)benzo[d]thiazol-2-yl)cyclopropane-1-carboxamide]",Hygroscopicity (DVS),[1],Hygroscopic
same,"DVS (ΔW %, 80% RH)","[1]; 25° C., 80% RH",2.30%
same,"Form change (Yes/No, XRPD)","[1]; XRPD, listed after DVS",(No)
same,solubility,"[2]; aqueous with cosolvent or surfactant or cyclodextrin, thermodynamic from solid, Acetone/H2O (1/1, v/v), 25° C., read-out: Solubility",< 5000 µg/mL
same,solubility,"[2]; aqueous with cosolvent or surfactant or cyclodextrin, thermodynamic from solid, Acetone/H2O (1/1, v/v), 50° C., read-out: Solubility",< 5000 µg/mL
same,solubility,"[2]; aqueous with cosolvent or surfactant or cyclodextrin, thermodynamic from solid, EtOH/H2O (1/1, v/v), 25° C., read-out: Solubility",< 5000 µg/mL
same,solubility,"[2]; aqueous with cosolvent or surfactant or cyclodextrin, thermodynamic from solid, EtOH/H2O (1/1, v/v), 50° C., read-out: Solubility",< 5000 µg/mL
same,solubility,[2]; in DMF and DMSO,relatively high solubility
same,solubility,[2]; in mostly common use solvents,relatively low solubility
same,solubility,"[2]; organic solvent or mixture, thermodynamic from solid, 1,4-dioxane, 25° C., read-out: Solubility",< 5000 µg/mL
same,solubility,"[2]; organic solvent or mixture, thermodynamic from solid, 1,4-dioxane, 50° C., read-out: Solubility",7000 to 10000 µg/mL
same,solubility,"[2]; organic solvent or mixture, thermodynamic from solid, 2-Propanol (IPA), 25° C., read-out: Solubility",< 5000 µg/mL
same,solubility,"[2]; organic solvent or mixture, thermodynamic from solid, 2-Propanol (IPA), 50° C., read-out: Solubility",< 5000 µg/mL
same,solubility,"[2]; organic solvent or mixture, thermodynamic from solid, Acetone, 25° C., read-out: Solubility",< 5000 µg/mL
same,solubility,"[2]; organic solvent or mixture, thermodynamic from solid, Acetone, 50° C., read-out: Solubility",< 5000 µg/mL
same,solubility,"[2]; organic solvent or mixture, thermodynamic from solid, Acetonitrile (ACN), 25° C., read-out: Solubility",< 5000 µg/mL
same,solubility,"[2]; organic solvent or mixture, thermodynamic from solid, Acetonitrile (ACN), 50° C., read-out: Solubility",< 5000 µg/mL
same,solubility,"[2]; organic solvent or mixture, thermodynamic from solid, Dichloromethane (DCM), 25° C., read-out: Solubility",< 5000 µg/mL
same,solubility,"[2]; organic solvent or mixture, thermodynamic from solid, Dimethylsulfoxide (DMSO), 25° C., read-out: Solubility",> 100000 µg/mL
same,solubility,"[2]; organic solvent or mixture, thermodynamic from solid, Ethyl acetate (EtOAc), 25° C., read-out: Solubility",< 5000 µg/mL
same,solubility,"[2]; organic solvent or mixture, thermodynamic from solid, Ethyl acetate (EtOAc), 50° C., read-out: Solubility",< 5000 µg/mL
same,solubility,"[2]; organic solvent or mixture, thermodynamic from solid, Ethyl alcohol (EtOH), 25° C., read-out: Solubility",< 5000 µg/mL
same,solubility,"[2]; organic solvent or mixture, thermodynamic from solid, Ethyl alcohol (EtOH), 50° C., read-out: Solubility",< 5000 µg/mL
same,solubility,"[2]; organic solvent or mixture, thermodynamic from solid, Heptane, 25° C., read-out: Solubility",< 5000 µg/mL
same,solubility,"[2]; organic solvent or mixture, thermodynamic from solid, Heptane, 50° C., read-out: Solubility",< 5000 µg/mL
same,solubility,"[2]; organic solvent or mixture, thermodynamic from solid, Isopropyl acetate (IPAc), 25° C., read-out: Solubility",< 5000 µg/mL
same,solubility,"[2]; organic solvent or mixture, thermodynamic from solid, Isopropyl acetate (IPAc), 50° C., read-out: Solubility",< 5000 µg/mL
same,solubility,"[2]; organic solvent or mixture, thermodynamic from solid, Methanol (MeOH), 25° C., read-out: Solubility",< 5000 µg/mL
same,solubility,"[2]; organic solvent or mixture, thermodynamic from solid, Methanol (MeOH), 50° C., read-out: Solubility",5000 to 7000 µg/mL
same,solubility,"[2]; organic solvent or mixture, thermodynamic from solid, Methyl ethyl ketone (MEK), 25° C., read-out: Solubility",< 5000 µg/mL
same,solubility,"[2]; organic solvent or mixture, thermodynamic from solid, Methyl ethyl ketone (MEK), 50° C., read-out: Solubility",< 5000 µg/mL
same,solubility,"[2]; organic solvent or mixture, thermodynamic from solid, Methyl isobutyl ketone (MIBK), 25° C., read-out: Solubility",< 5000 µg/mL
same,solubility,"[2]; organic solvent or mixture, thermodynamic from solid, Methyl isobutyl ketone (MIBK), 50° C., read-out: Solubility",< 5000 µg/mL
same,solubility,"[2]; organic solvent or mixture, thermodynamic from solid, Methyl tert-butyl ether (MtBE), 25° C., read-out: Solubility",< 5000 µg/mL
same,solubility,"[2]; organic solvent or mixture, thermodynamic from solid, Methyl tert-butyl ether (MtBE), 50° C., read-out: Solubility",< 5000 µg/mL
same,solubility,"[2]; organic solvent or mixture, thermodynamic from solid, N,N-Dimethylformamide (DMF), 25° C., read-out: Solubility",67000 to 100000 µg/mL
same,solubility,"[2]; organic solvent or mixture, thermodynamic from solid, N,N-Dimethylformamide (DMF), 50° C., read-out: Solubility",> 100000 µg/mL
same,solubility,"[2]; organic solvent or mixture, thermodynamic from solid, Tetrahydrofuran (THF), 25° C., read-out: Solubility",8000 to 10000 µg/mL
same,solubility,"[2]; organic solvent or mixture, thermodynamic from solid, Tetrahydrofuran (THF), 50° C., read-out: Solubility",9000 to 13000 µg/mL
same,solubility,"[2]; organic solvent or mixture, thermodynamic from solid, Toluene, 25° C., read-out: Solubility",< 5000 µg/mL
same,solubility,"[2]; organic solvent or mixture, thermodynamic from solid, Toluene, 50° C., read-out: Solubility",< 5000 µg/mL
same,solubility,"[2]; thermodynamic from solid, Water, 25° C., read-out: Solubility",< 5000 µg/mL
same,solubility,"[2]; thermodynamic from solid, Water, 50° C., read-out: Solubility",< 5000 µg/mL
same,Final pH value,"[3]; FaSSIF, initial pH 6.52",6.50
same,Final pH value,"[3]; FeSSIF, initial pH 5.07",5.09
same,Final pH value,"[3]; SGF, initial pH 1.92",2.28
same,solubility at 24 h,"[3]; aqueous buffer, pH 2.0 buffer, initial pH 1.98, 37° C., 24 hrs",2060 µg/mL
same,solubility at 24 h,"[3]; aqueous buffer, pH 4.0 buffer, initial pH 4.01, 37° C., 24 hrs",31 µg/mL
same,solubility at 24 h,"[3]; aqueous buffer, pH 6.0 buffer, initial pH 5.90, 37° C., 24 hrs",2 µg/mL
same,Final pH value,"[3]; pH 2.0 buffer, initial pH 1.98",2.25
same,Final pH value,"[3]; pH 4.0 buffer, initial pH 4.01",4.05
same,Final pH value,"[3]; pH 6.0 buffer, initial pH 5.90",5.88
same,Final pH value,"[3]; pH 8.0 buffer, initial pH 8.04",8.08
same,solubility at 24 h,"[3]; simulated gastric fluid, SGF, initial pH 1.92, 37° C., 24 hrs",2490 µg/mL
same,solubility at 24 h,"[3]; simulated gastric fluid, in SGF and pH 2.0 buffer, 37° C., called medium solubility",2000 to 2500 µg/mL
same,solubility at 24 h,"[3]; FeSSIF, initial pH 5.07, 37° C., 24 hrs",45 µg/mL
same,Final pH value,[3]; water,8.84
